Data: ChEMBL document CHEMBL1126797 (J Med Chem, 1993)

Experiments:
HT-29 [1] = test: Tumor volume in HT-29 cells after subcutaneous administration on days 16,20,23,27,30,34,37,41,44,48 at dose of 3 mg/kg; assay type: functional, Homo sapiens
Mus musculus [2] = test: Relative survival in RAW117-H10 cells implanted mice in comparison to control at dose of 3 mg/kg; assay type: functional
[3] = Number of metastases in K1735-M2 murine melanoma cells after subcutaneous administration on days1,4,6,8 at dose of 3 mg/kg; assay type: functional, Mus musculus
Mus musculus [4] = test: Relative survival in L1210 lymphoid leukemic mice after subcutaneous administration on days 1,4,6,8 at dose of 3 mg/kg; assay type: functional
DNA topoisomerase 1 [5] = biological target: T1, DNA topoisomerase 1 (Homo sapiens, UniProt P11387); test: Inhibition of Topoisomerase I by cleavage complex formation in human HL-60 cells; assay type: cell-based
T1 sequence (P11387 whole entry): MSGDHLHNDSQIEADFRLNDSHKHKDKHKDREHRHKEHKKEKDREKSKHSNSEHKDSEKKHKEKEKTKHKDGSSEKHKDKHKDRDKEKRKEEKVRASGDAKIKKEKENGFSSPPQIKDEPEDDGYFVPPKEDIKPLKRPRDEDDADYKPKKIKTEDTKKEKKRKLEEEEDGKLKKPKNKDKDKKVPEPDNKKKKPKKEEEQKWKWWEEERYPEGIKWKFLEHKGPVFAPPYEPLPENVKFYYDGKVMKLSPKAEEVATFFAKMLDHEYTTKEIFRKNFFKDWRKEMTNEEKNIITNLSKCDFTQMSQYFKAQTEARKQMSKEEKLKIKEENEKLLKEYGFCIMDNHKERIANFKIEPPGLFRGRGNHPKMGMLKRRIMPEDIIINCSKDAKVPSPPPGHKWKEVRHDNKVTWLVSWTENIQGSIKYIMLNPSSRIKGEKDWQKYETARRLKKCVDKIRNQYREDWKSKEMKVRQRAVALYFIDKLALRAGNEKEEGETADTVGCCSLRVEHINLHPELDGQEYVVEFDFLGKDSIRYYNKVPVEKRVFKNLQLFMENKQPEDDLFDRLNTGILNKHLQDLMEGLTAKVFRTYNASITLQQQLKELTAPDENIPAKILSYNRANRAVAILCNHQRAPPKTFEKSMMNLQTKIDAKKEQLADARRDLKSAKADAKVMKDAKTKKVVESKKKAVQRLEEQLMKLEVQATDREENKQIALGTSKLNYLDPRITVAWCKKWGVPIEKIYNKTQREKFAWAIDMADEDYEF

Mus musculus [6] = test: Relative survival as percent of control survival time in L1210 murine lymphoid leukemic mice after sc administration on days1,4,6,8 at dose of 4 mg/kg; assay type: functional; details: route subcutaneous
Mus musculus [7] = test: Relative survival in RAW117-H10 cells implanted mice in comparison to control at dose of 4 mg/kg; assay type: functional
HT-29 [8] = test: Tumor volume in HT-29 cells after subcutaneous administration on days 16,20,23,27,30,34,37,41,44,48 at dose of 4 mg/kg; assay type: functional, Homo sapiens
[9] = Number of metastases in K1735-M2 murine melanoma after subcutaneous administration on days1,4,6,8 at dose of 4 mg/kg; assay type: functional, Mus musculus
DNA topoisomerase 1 [10] = biological target: T1, DNA topoisomerase 1; test: Inhibition of Topoisomerase I by cleavage complex formation in intact human HL-60 cells; assay type: cell-based
Mus musculus [11] = species on record: Mus musculus; test: Toxic dose in L1210 lymphoid leukemic mice; assay type: toxicity, organism-based; details: in vivo
HT-29 [12] = test: Tumor volume in HT-29 cells after subcutaneous administration on days 16,20,23,27,30,34,37,41,44,48 at dose of 2.5 mg/kg; assay type: functional, Homo sapiens
Mus musculus [13] = species on record: Mus musculus; test: Percent median survival time of treated leukemic mice compared to control; assay type: functional
[14] = Number of metastases in K1735-M2 murine melanoma cells after subcutaneous administration at dose of 2.5 mg/kg; assay type: functional, Mus musculus
Mus musculus [15] = species on record: Mus musculus; test: Number of L1210 lymphoid leukemic mice cured out of […]; assay type: functional
L1210 [16] = test: Log of initial tumor cell population minus log of tumor cell population at end of treatment in L1210 lymphoid leukemic mice; assay type: functional, Mus musculus
Mus musculus [17] = test: Highest active dose in L1210 lymphoid leukemic mice at dose range of 0.6-5 mg/kg; assay type: functional
Mus musculus [18] = test: Relative survival in L1210 lymphoid leukemic mice after subcutaneous administration on days 1,4,6,8 at dose of 4 mg/kg; assay type: functional
Mus musculus [19] = test: Relative survival in RAW117-H10 cells implanted mice in comparison to control at dose of 2.5 mg/kg; assay type: functional
Mus musculus [20] = test: Highest active dose in L1210 lymphoid leukemic mice at dose range of 2.37-8 mg/kg; assay type: functional
L1210 [21] = test: Toxic dose in L1210 murine lymphoid leukemia at dose of 20 mg/kg; NT means not toxic; assay type: toxicity, organism-based; set-up: dose 20 mg/kg; details: mouse, in vivo
Mus musculus [22] = test: Relative survival in RAW117-H10 cells implanted mice in comparison to control at dose of 6 mg/kg; assay type: functional
Mus musculus [23] = test: Number of L1210 mice cured after i.v. drug dosing on hours 1 and 5; assay type: functional
Mus musculus [24] = test: Median survival time of treated/control animals x 100 after i.v. drug dosing on hours 1 and 5; assay type: functional
L1210 [25] = test: Relative survival in L1210 murine lymphoid leukemia cells after subcutaneous administration on days1,4,6,8 at dose of 6 mg/kg; assay type: functional, Mus musculus
L1210 [26] = test: Log of initial tumor cell population minus log of tumor cell population at end of treatment after i.v. drug dosing on hours 1 and 5; assay type: functional, Mus musculus
Mus musculus [27] = test: Highest active dose in L1210 lymphoid leukemic mice after i.v. drug dosing on hours 1 and 5 at dose range of 2.85-10 mg/kg; assay type: functional
[28] = Number of metastases in K1735-M2 murine melanoma cells after subcutaneous administration on days1,4,6,8 at dose of 6 mg/kg; assay type: functional, Mus musculus

CC[C@@]1(O)C(=O)OCc2c1cc1n(c2=O)Cc2cc3cc4c(cc3nc2-1)OCO4
Control (HT-29 [1]): 18% | T/C (Mus musculus [2]): 1.33 | Control [3]: 9% | T/C (Mus musculus [4]): 1.49

CCC1(O)C(=O)OCc2c1cc1n(c2=O)Cc2cc3c(Cl)c(Cl)ccc3nc2-1 (centres undefined)
IC50 (DNA topoisomerase 1 [5]): 110 nM

CCC1(O)C(=O)OCc2c1cc1n(c2=O)Cc2cc3c(F)cccc3nc2-1 (centres undefined)
IC50 (DNA topoisomerase 1 [5]): 160 nM

O=C1OCc2c(cc3n(c2=O)Cc2cc4ccccc4nc2-3)C1(O)CCO (racemic)
IC50 (DNA topoisomerase 1 [5]): 9600 nM

CC[C@@]1(O)C(=O)OCc2c1cc1n(c2=O)Cc2cc3c(O)cccc3nc2-1
IC50 (DNA topoisomerase 1 [5]): 870 nM

CC[C@@]1(O)C(=O)OCc2c1cc1n(c2=O)Cc2cc3c([N+](=O)[O-])c4c(cc3nc2-1)OCO4
IC50 (DNA topoisomerase 1 [5]): 150 nM

CC[C@@](O)(C(=O)[O-])c1cc2n(c(=O)c1CO)Cc1cc3cc4c(cc3nc1-2)OCO4.[Na+]
T/C (Mus musculus [6]): 2.13 | T/C (Mus musculus [7]): 1.36 | Control (HT-29 [8]): 40% | Control [9]: 15% | IC50 (DNA topoisomerase 1 [5]): 840 nM

CCC1(O)C(=O)OCc2c1cc1n(c2=O)Cc2cc3c(Cl)c4c(cc3nc2-1)OCO4 (centres undefined)
IC50 (DNA topoisomerase 1 [5]): 61 nM

CCC1(O)C(=O)OCc2c1cc1n(c2=O)Cc2cc3c(CN4CC4)c(O)ccc3nc2-1 (centres undefined)
IC50 (DNA topoisomerase 1 [5]): 1100 nM

CCC1(O)C(=O)OCc2c1cc1n(c2=O)Cc2cc3c(N)cccc3nc2-1 (racemic) [RS-9-Aminocamptothecin]
IC50 (DNA topoisomerase 1 [10]): 840 nM | IC50 (DNA topoisomerase 1 [5]): 440 nM

CCC1(O)C(=O)OCc2c1cc1n(c2=O)Cc2cc3cc(OC(=O)N4CCC(N5CCCCC5)CC4)ccc3nc2-1 (centres undefined)
IC50 (DNA topoisomerase 1 [5]): 21000 nM

CCC1(O)C(=O)OCc2c1cc1n(c2=O)Cc2cc3c(NC(=O)CN)c4c(cc3nc2-1)OCO4 (racemic)
IC50 (DNA topoisomerase 1 [10]): > 30000 nM | IC50 (DNA topoisomerase 1 [5]): 260 nM

CCC1(O)C(=O)OCc2c1cc1n(c2=O)Cc2cc3cc4c(cc3nc2-1)OCCO4 (racemic)
IC50 (DNA topoisomerase 1 [5]): 470 nM

CC[C@]1(O)C(=O)OCc2c1cc1n(c2=O)Cc2cc3c(N)c4c(cc3nc2-1)OCO4
IC50 (DNA topoisomerase 1 [5]): > 30000 nM

CCC1(O)C(=O)OCc2c1cc1n(c2=O)Cc2cc3c(N)c(Br)cc(Br)c3nc2-1 (racemic)
IC50 (DNA topoisomerase 1 [5]): > 30000 nM

CC[C@@]1(O)C(=O)OCc2c1cc1n(c2=O)Cc2cc3c(N)cccc3nc2-1 [9-AMINOCAMPTOTHECIN]
Toxic dose (Mus musculus [11]): 10 mg/kg | Control (HT-29 [12]): 25% | T/C (Mus musculus [13]): 361% | Control [14]: 73% | Cures (Mus musculus [15]): 3 | IC50 (DNA topoisomerase 1 [5]): 110 nM | KE (L1210 [16]): 5.97 | Highest active dose (Mus musculus [17]): 0.6 mg/kg | T/C (Mus musculus [18]): 2.44 | T/C (Mus musculus [19]): 1.15

CCC(O)(C(=O)O)c1cc2n(c(=O)c1CO)Cc1cc3ccccc3nc1-2 (racemic)
IC50 (DNA topoisomerase 1 [5]): 2000 nM

CC[C@@](O)(C(=O)O)c1cc2n(c(=O)c1CO)Cc1cc3ccccc3nc1-2
IC50 (DNA topoisomerase 1 [5]): 12000 nM

CCC1(O)C(=O)OCc2c1cc1n(c2=O)Cc2cc3cc(C(=O)O)ccc3nc2-1 (centres undefined)
IC50 (DNA topoisomerase 1 [5]): 1000 nM

CC[C@@]1(O)C(=O)OCc2c1cc1n(c2=O)Cc2cc3c(C)cccc3nc2-1
Toxic dose (Mus musculus [11]): 12 mg/kg | Highest active dose (Mus musculus [20]): 8 mg/kg | T/C (Mus musculus [13]): 274% | Cures (Mus musculus [15]): 4 | IC50 (DNA topoisomerase 1 [5]): 38 nM | KE (L1210 [16]): 5.6

CCC1(O)C(=O)OCc2c1cc1n(c2=O)Cc2cc3cc(F)ccc3nc2-1 (centres undefined)
IC50 (DNA topoisomerase 1 [5]): 370 nM

CCC(O)(C(=O)[O-])c1cc2n(c(=O)c1CO)Cc1cc3cc4c(cc3nc1-2)OCO4.[Na+] (racemic)
Toxic dose (L1210 [21]): Non-toxic | T/C (Mus musculus [22]): 1.32 | Cures (Mus musculus [23]): 0 | T/C (Mus musculus [24]): 157% | IC50 (DNA topoisomerase 1 [5]): 550 nM | T/C (L1210 [25]): 2.13 | KE (L1210 [26]): 4.79 | Highest active dose (Mus musculus [27]): 10 mg/kg | Control [28]: 4%

CC[C@@]1(O)C(=O)OCc2c1cc1n(c2=O)Cc2cc3cc(Cl)ccc3nc2-1
IC50 (DNA topoisomerase 1 [5]): 140 nM

CCC1(O)C(=O)OCc2c1cc1n(c2=O)Cc2cc3c4c(ccc3nc2-1)OCO4 (racemic)
IC50 (DNA topoisomerase 1 [5]): 3800 nM

CC[C@@]1(O)C(=O)OCc2c1cc1n(c2=O)Cc2cc3cc([N+](=O)[O-])ccc3nc2-1
IC50 (DNA topoisomerase 1 [5]): 640 nM

CCC1(O)C(=O)OCc2c1cc1n(c2=O)Cc2cc3cc(OC(=O)N4CCN(C)CC4)ccc3nc2-1 (centres undefined)
IC50 (DNA topoisomerase 1 [5]): 4400 nM

CC[C@](O)(C(=O)O)c1cc2n(c(=O)c1CO)Cc1cc3c(N)c4c(cc3nc1-2)OCO4
IC50 (DNA topoisomerase 1 [5]): > 30000 nM

CCC1(O)C(=O)OCc2c1cc1n(c2=O)Cc2cccnc2-1 (racemic)
IC50 (DNA topoisomerase 1 [5]): > 30000 nM

CCC1(O)C(=O)OCc2c1cc1n(c2=O)Cc2cc3c(OC)cccc3nc2-1 (racemic)
IC50 (DNA topoisomerase 1 [5]): 1600 nM

CCC1(O)C(=O)OCc2c1cc1n(c2=O)Cc2cc3cc(Br)ccc3nc2-1 (centres undefined)
IC50 (DNA topoisomerase 1 [5]): 130 nM

CCC(O)(C(=O)O)c1cc2n(c(=O)c1CO)Cc1cc3c(N)cccc3nc1-2 (racemic)
IC50 (DNA topoisomerase 1 [5]): 13000 nM

CCC1(O)C(=O)OCc2c1cc1n(c2=O)Cc2cc3c(Cl)cccc3nc2-1 (racemic)
IC50 (DNA topoisomerase 1 [5]): 190 nM

CCC1(O)C(=O)OCc2c1cc1n(c2=O)Cc2cc3c([N+](=O)[O-])c4c(cc3nc2-1)OCO4 (racemic)
IC50 (DNA topoisomerase 1 [5]): 220 nM

CCC1(O)C(=O)OCc2c1cc1n(c2=O)Cc2cc3c(N)c4c(cc3nc2-1)OCO4 (racemic)
T/C (Mus musculus [2]): 1.6 | IC50 (DNA topoisomerase 1 [10]): 69 nM | Control [3]: 25% | T/C (Mus musculus [4]): 3 | IC50 (DNA topoisomerase 1 [5]): 76 nM

CC[C@@]1(O)C(=O)OCc2c1cc1n(c2=O)Cc2cc3cc(C#N)ccc3nc2-1
IC50 (DNA topoisomerase 1 [5]): 1900 nM

CC1(O)C(=O)OCc2c1cc1n(c2=O)Cc2cc3ccccc3nc2-1 (racemic)
IC50 (DNA topoisomerase 1 [5]): 4000 nM

CC[C@@]1(O)C(=O)OCc2c1cc1n(c2=O)Cc2cc3cc(O)ccc3nc2-1 [HYDROXYCAMPTOTHECIN]
IC50 (DNA topoisomerase 1 [5]): 110 nM

CC[C@@]1(O)C(=O)OCc2c1cc1n(c2=O)Cc2cc3cc(C)ccc3nc2-1
IC50 (DNA topoisomerase 1 [5]): 300 nM

O=C1OCc2c(cc3n(c2=O)Cc2cc4ccccc4nc2-3)C1(O)CCBr (racemic)
IC50 (DNA topoisomerase 1 [5]): 3100 nM
